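Compound exposure: 48 hours, 5 concentrations, 96-well plates. GI50 marks 50% less growth.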 Active and inactive are the calls of the source. No stated cut-off is given here; in the data, active = GI50 up to about 1.1 µM and inactive = higher.
Experiments:
Experiment in all cases: NCI-60 cell line screen, 48 h
[1] = test system: U-251
[2] = test system: MCF7
[3] = test system: TK-10
[4] = test system: K562
[5] = test system: OVCAR-3
[6] = test system: SK-MEL-2
[7] = test system: BT-549
[8] = test system: MDA-MB-231
[9] = test system: COLO 205
[10] = test system: SK-MEL-5
[11] = test system: SNB-19
[12] = test system: MOLT-4
[13] = test system: OVCAR-8
[14] = test system: A549
[15] = test system: 786-0
[16] = test system: UACC-257
[17] = test system: NCI/ADR-RES
[18] = test system: M14
[19] = test system: MDA-MB-435
[20] = test system: LOX IMVI

SMILES	GI50 [1]	GI50 [2]	GI50 [3]	GI50 [4]	GI50 [5]	GI50 [6]	GI50 [7]	GI50 [8]	GI50 [9]	GI50 [10]	GI50 [11]	GI50 [12]	GI50 [13]	GI50 [14]	GI50 [15]	GI50 [16]	GI50 [17]	GI50 [18]	GI50 [19]	GI50 [20]
O=[N+]([O-])c1cccc2nc3ccccc3c(NCCCn3ccnc3[N+](=O)[O-])c12	0.000213 µM (active)	< 0.0001 µM (active)	0.00367 µM (active)	< 0.0001 µM (active)	0.00309 µM (active)	0.000235 µM (active)	< 0.0001 µM (active)	0.000168 µM (active)	0.000109 µM (active)	< 0.0001 µM (active)	0.000366 µM (active)	0.000336 µM (active)	0.000111 µM (active)	0.000122 µM (active)	0.000175 µM (active)	0.0039 µM (active)	0.0238 µM (active)	< 0.0001 µM (active)	< 0.0001 µM (active)	0.0158 µM (active)
O=C(Nc1ccc(-c2cn3ccccc3n2)cc1)c1cc(Br)ccc1O	> 100 µM (inactive)	> 100 µM (inactive)	> 100 µM (inactive)	> 100 µM (inactive)	> 100 µM (inactive)	> 100 µM (inactive)	> 100 µM (inactive)	> 100 µM (inactive)	> 100 µM (inactive)	> 100 µM (inactive)	> 100 µM (inactive)	> 100 µM (inactive)	> 100 µM (inactive)	> 100 µM (inactive)	> 100 µM (inactive)	> 100 µM (inactive)	> 100 µM (inactive)	> 100 µM (inactive)	> 100 µM (inactive)	> 100 µM (inactive)
CCOC(=O)c1ccc(-c2cccs2)n1C	> 100 µM (inactive)	> 96.4 µM (inactive)	> 100 µM (inactive)	60.5 µM (inactive)	> 100 µM (inactive)	> 100 µM (inactive)	> 83 µM (inactive)	> 100 µM (inactive)	> 100 µM (inactive)	33.7 µM (inactive)	> 100 µM (inactive)	39.4 µM (inactive)	> 100 µM (inactive)	> 100 µM (inactive)	> 100 µM (inactive)	> 79.1 µM (inactive)	> 87.5 µM (inactive)	> 100 µM (inactive)	> 92.5 µM (inactive)	> 77.8 µM (inactive)
CC(=O)N(C)C(C(=O)N1CC(C)CC1C(=O)N(C)C1C(=O)NC(CC(C)C)C(=O)N2CC(C)CC2C(=O)NC(CC(C)C)C(=O)N(C)C(C(C)C)C(=O)N2CCCC2C(=O)N(C)C(CC(C)C)C(=O)NCC(=O)OC1C)C(C)C (stereo not given)	> 100 µM (inactive)	> 100 µM (inactive)	> 100 µM (inactive)	> 100 µM (inactive)	> 100 µM (inactive)	> 100 µM (inactive)	> 100 µM (inactive)	> 100 µM (inactive)	> 100 µM (inactive)	> 100 µM (inactive)	> 100 µM (inactive)	> 100 µM (inactive)	> 100 µM (inactive)	> 100 µM (inactive)	> 100 µM (inactive)	> 100 µM (inactive)	> 100 µM (inactive)	> 100 µM (inactive)	> 100 µM (inactive)	> 100 µM (inactive)
CCOC(=O)N(Cc1cccs1)c1cc(OC)c(OC)c(OC)c1	> 100 µM (inactive)	58.2 µM (inactive)	> 100 µM (inactive)	26.2 µM (inactive)	53.8 µM (inactive)	26.5 µM (inactive)	40.6 µM (inactive)	75 µM (inactive)	7.18 µM (inactive)	41.7 µM (inactive)	> 100 µM (inactive)	13.6 µM (inactive)	90.4 µM (inactive)	94.6 µM (inactive)	> 100 µM (inactive)	> 100 µM (inactive)	3.01 µM (inactive)	> 100 µM (inactive)	17.4 µM (inactive)	45.2 µM (inactive)
Cc1c(C(=O)O)n2cnnc2c2ccccc12	> 100 µM (inactive)	> 100 µM (inactive)	> 100 µM (inactive)	> 100 µM (inactive)	> 100 µM (inactive)	> 100 µM (inactive)	> 100 µM (inactive)	> 100 µM (inactive)	> 100 µM (inactive)	> 100 µM (inactive)	> 100 µM (inactive)	> 100 µM (inactive)	> 100 µM (inactive)	> 100 µM (inactive)	> 100 µM (inactive)	> 100 µM (inactive)	> 100 µM (inactive)	> 100 µM (inactive)	> 100 µM (inactive)	> 100 µM (inactive)
ClCc1nn(-c2ccccc2)c(CCl)c1CCl	2.35 µM (inactive)	2.38 µM (inactive)	8.39 µM (inactive)	2.54 µM (inactive)	3.47 µM (inactive)	5.71 µM (inactive)	3.77 µM (inactive)	4.34 µM (inactive)	3.88 µM (inactive)	2.68 µM (inactive)	6.73 µM (inactive)	1.72 µM (inactive)	2.35 µM (inactive)	7.66 µM (inactive)	2.56 µM (inactive)	7.76 µM (inactive)	5.57 µM (inactive)	3.3 µM (inactive)	2.41 µM (inactive)	1.47 µM (inactive)

Source: ChEMBL document CHEMBL1201862, “PubChem BioAssay data set” (2004)
